Data taken from article PMC8708390, “Fatty Acid Modification of the Anticancer Peptide LVTX-9 to Enhance Its Cytotoxicity against Malignant Melanoma Cells” (Toxins, 2021).
Where no end group is shown, it is not given here.

Assays:
B16-F10 cells [1] = test: CCK-8 cell viability assay, B16-F10 cells; assay type: cell-based, mouse; conditions: 50 μM, 24 h of treatment, serum-free medium (Figure 3B)
Description: Mouse skin melanoma cells (B16-F10) were cultured in RPMI-1640 (Gibco), and mouse fibroblast cells (L-929), human lung carcinoma cells (A549), mouse breast cells (4T1), human hepatocarcinoma cells (HepG2), and human cervical carcinoma cells (Hela) were cultured in Dulbecco’s Modified Eagle Medium (DMEM, Gibco). All culture medium contained 10% fetal bovine serum (serum, Gibco), 100 U/mL of penicillin, and […] of streptomycin at 37 °C with 5% CO2.
Cell viability was quantified using a CCK-8 assay. At first, cells were seeded into a 96-well plate at approximately 2 × 10^3 cells/well. The following day, we created a 2-fold dilution series of each peptide using fresh medium (with or without 10% serum) for the treated cells, and cell viability was detected at 450 nm via a CCK-8 assay using an Absorbance Microplate Reader (BioTek Instruments, Winooski, VT, USA) following 24 h of drug incubation. The activity curves and IC50 values of the peptides were visualized using GraphPad prism 5.0.

B16-F10 cells [2] = test: LDH leakage assay; assay type: cell-based, mouse; conditions: 25 μM, 24 h, absorbance 490 nm, n = 3
Description: At first, the B16-F10 cells were cultured in 96-well plates for 24 h at approximately 2 × 10^3 cells/well. Subsequently, the cells were treated for 24 h with LVTX-9 or LVTX-9-C18 with a series of concentration gradients. LDH leakage detection was detected using an LDH Cytotoxicity Assay Kit according to the manufacturer’s instructions (Beyotime, Shanghai, China. C0017). The absorption was measured using an Absorbance Microplate Reader (BioTek Instruments) at 490 nm. The LDH release (%) of peptides was calculated by GraphPad prism 5.0.

erythrocytes = test: Hemolytic activity; assay type: cell-based; conditions: 1% RBC in PBS, 30 min at 37 °C, absorbance 450 nm, 0.1% Triton-X 100 positive control
Description: The hemolytic activity levels of LVTX-9 and LVTX-9-C18 were confirmed as follows. Red blood cells (RBC) were washed with sterile PBS and centrifuged for 5 min at 1000 rpm. The supernatant was removed, and cells were resuspended in PBS at a final concentration of 1% (5 × 10^6/mL). The diluted RBC suspension (50 µL) was mixed with PBS (negative control), 0.1% Triton-X 100 (positive control), and LVTX-9 or LVTX-9-C18 with various concentrations at a 1:1 ratio. The mixtures were incubated for 30 min at 37 °C, then centrifuged for 5 min at 12,000 rpm. The supernatant (90 µL) was added to a new 96-well plate to measure the absorbance at 450 nm using a microplate reader, and we produced hemolytic activity curves by GraphPad prism 5.0.

B16-F10 cells [3] = test: Scanning electron microscopy of cell membrane; assay type: cell-based, mouse; conditions: 50 μM, 24 h
Description: The morphologic changes of the cell membrane of B16-F10 cells treated with peptides were observed by SEM [14]. The cells were seeded on coverslips and placed into a six-well plate, then treated with LVTX-9 (50 μM) and LVTX-9-C18 (5 μM) for 24 h. After incubation, the B16-F10 cells were washed with sterile PBS gently three times and fixed with 2 mL of 2.5% glutaraldehyde solution in each well for 4 h at room temperature. Then, the fixed cells were dehydrated with a series of ethanol concentrations. We dried the samples with a Critical Point Dryer and coated them with gold plating before observation. A scanning electron microscope (Hitachi Su8010, Tokyo, Japan) was used to examine the prepared samples.

[4] = Circular dichroism secondary structure; assay type: physicochemical; conditions: 100 µM, 25 °C, 180-280 nm
Description: Dynamic light scattering (DLS) of Zetasizer Nano ZSP (Malvern Instruments, Malvern, UK) apparatus was used to determine the hydrodynamic size and zeta potential of LVTX-9 and LVTX-9-C18. The peptides concentrations were diluted to 100 µM with ultrapure water with a final volume of 1 mL. The procedure ran at 25 °C, with each experiment repeated three times. The secondary structures of LVTX-9 and LVTX-9-C18 were determined to be in line with the previous protocol. The peptide concentrations were then diluted to 100 µM with ultrapure water and 100 mM of SDS was added in a final volume of 250 μL. The procedure was carried out at 25 °C. CD spectra were recorded between 180 nm and 280 nm on a Jasco J-815 CD spectrometer.

[5] = RP-HPLC retention time as measure of hydrophobicity; assay type: physicochemical; conditions: chromatographic, Vydac C18 300 Å 4.6 × 250 mm, 1.0 mL/min, gradient 30-100% acetonitrile/0.1% TFA, 215 nm, column 25 ± 5 °C; maximum height of peak
Description: Peptides were synthesized using the Fmoc SPPS methods. Briefly, the peptide LVTX-9 (AC-[…]-amide) was prepared on Rink Amide AM resin at a 0.2 mmol scale. A 4-fold excess of the Fmoc-protected amino acids was coupled with the Rink Amide AM resin using HCTU and HOBT as the activating agents in 5% NMM/DMF. After the synthesis of LVTX-9, the N-terminal Fmoc group was removed using 20% piperidine. As in the previous steps, a series of fatty acids (C12-C20) was activated in HCTU and HOBT using 5% NMM/DMF, and coupled to peptidyl resin for 2 h. Peptides were cleaved using trifluoroacetic acid (TFA)/thioanisole (TIS)/anisole (95:3:2 (v/v)) for 2.5 h, and the collected lysate was precipitated in cold diethyl ether three times. The precipitate was air-dried naturally. Next, the obtained crude products were purified using RP-HPLC (C18, 4.6 mm × 250 mm) on the basis of a 0.1% TFA/acetonitrile gradient from 30% to 100% in 46 min. Then, we collected the eluted peptides and determined the molecular mass using MALDI-TOF MS (AB, SCIEX, Waltham, MA, USA).
Figure 2 Purification and identification of five lipopeptides using RP-HPLC and MALDL-TOF MS: The purification of (A) LVTX-9-C12, (B) LVTX-9-C14, (C) LVTX-9-C16, (D) LVTX-9-C18, and (E) LVTX-9-C20 was performed using RP-HPLC (column, Vydac, C18, 300 Å, 4.6 × 250 mm). The lipopeptides were separated at a flow rate of 1.0 mL/min under a gradient of 30–100% acetonitrile/0.1% TFA. The elution of lipopeptides was monitored at 215 nm. Identification of (F) LVTX-9-C12, (G) LVTX-9-C14, (H) LVTX-9-C16, (I) LVTX-9-C18, and (J) LVTX-9-C20 by MALDI-TOF MS, respectively. The red star (*) represents the target peak. […]
Table S1. Purification gradient of peptides.
Time (min) Flow Rate (mL/min) A% B%
Wavelength: 215 nm/280 nm, column temperature: 25 ± 5 ℃, A: ddH2O (0.1% TFA), B: acetonitrile
(1 picture or pasted object on this page, not shown here)

For “ASIGALIQKAIALIKAKAA-NH2 (C-terminus assumed) [LVTX-9]”, the “effect on cell viability at 50 μM” value (B16-F10 cells [1]) was “no significant effect on cell viability”, the “LDH release at 25 μM” value (B16-F10 cells [2]) was ~ 2% and the “hemolytic activity at 200 μM” value (erythrocytes) was “almost no hemolytic activity”. For the same substance, the “cell membrane morphology by SEM at 50 μM” value (B16-F10 cells [3]) was “intact membranes with smooth surfaces”, the “secondary structure (CD) in 100 mM of SDS” value ([4]; 100 mM SDS) was “α-helical conformation” and the “secondary structure (CD) in ultrapure water” value ([4]; ultrapure water) was “random coil conformation”. For the same substance, the “TR (retention time, RP-HPLC; indicates the hydrophobicity of the peptides)” value [5] was 15.21 min.
